Earlier results as cited in publication PMC9063988 (JACS Au, 2022).

System: uptake of ETP transporter 21 into HeLa Kyoto cells

O[C@H](CS)[C@@H](O)CS [DTE, 1,4-Dithioerythritol]
inhibition of thiol-mediated uptake: fail to inhibit
